Here are results for five compounds from publication PMC3633906, “A High Throughput Screen for RGS Proteins Using Steady State Monitoring of Free Phosphate Formation” (PLoS ONE, 2013).

For one series, the target named is T1, RGS4(WT) (Rattus norvegicus, UniProt P49799).
T1 construct: fused to the N-terminus of an RGS4 construct containing amino acids 51–205; 10× His tag (N, cleaved yes); made in house; host or cells: E. coli BL21-DE3
T1 sequence (P49799 51-205): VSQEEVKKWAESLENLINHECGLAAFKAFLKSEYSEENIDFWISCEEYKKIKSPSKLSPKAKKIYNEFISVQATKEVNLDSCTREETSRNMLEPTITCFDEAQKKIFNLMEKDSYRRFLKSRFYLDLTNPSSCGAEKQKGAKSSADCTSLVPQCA
The experiment in a line: Malachite green steady-state GAP assay, RGS4(WT). Format: biochemical. The conditions noted are these: for Mean absorbance at 642 nm, positive control: 10 µM final compound. As to the method:
Stock solutions of each of the 3 components of the developing solution were prepared, which are stable for long-term storage. Malachite solution was prepared by first diluting concentrated sulfuric acid 1∶5 in distilled water. Once the solution cooled to 25°C, malachite solution was prepared by dissolving 0.44 g of malachite green oxalate (Alfa Aesar; Ward Hill, MA) in 360 mL diluted acid and stored at 25°C. Molybdate solution, containing 7.5% ammonium molybdate tetrahydrate (Alfa Aesar; Ward Hill, MA), was prepared in distilled water and stored at 4°C. Tween-20 solution, used to maintain solubility of the phosphate-molybdate-malachite complex, was prepared as 11% (v/v) Tween-20 in distilled water. On the day of use, 2.5 mL molybdate solution and 0.2 mL Tween-20 solution were added to 10 mL of malachite solution and mixed quickly to avoid precipitation of malachite. The final ratio of the Developing Solution (DS) was 50∶12.5∶1 (malachite:molybdate:Tween-20). The peak absorbance was determined by a 2 nm step wavelength scan, using 10 µM Na3PO4 at pH 7.5 as the negative control.
The malachite green assay involves 5 components, with a 1 min spin at 100×g between each addition. For time-course experiments, the first component was 10 µL Malachite Green Assay Buffer (MGB; 50 mM HEPES at pH 7.5, 100 mM NaCl, 5 mM EDTA, 10 mM MgCl2, 0.01% lubrol) into a clear 384-well plate (ThermoFisher Scientific; Waltham, MA) using a MultiDrop dispenser (PerkinElmer; Waltham, MA). The second component dispensed was 10 µL of a 4× stock of RGS4, typically 200 nM to 1.6 µM with the target final concentration of 50 nM to 400 nM, diluted in MGB. After a 30 min incubation, 10 µL of the third component, 4× stock of Gαi diluted in MGB, was dispensed (typically between 4 µM and 80 µM with a desired final concentration 1 µM to 20 µM). After a minimum of 5 min incubation, 10 µL of the fourth component, 4× GTP diluted in MGB, was added at 10 minute intervals from 1–110 minutes. The 0 min time point was excluded due to amount of time required to proceed from GTP addition to quenching with DS. 4× GTP concentrations varied between 0.2 mM and 2.4 mM, with a target final concentration of 50 µM to 600 µM. To terminate the reaction, 10 µL of DS was added to each well using a Microlab Star liquid handling robot (Hamilton Robotics; Reno, NV), to achieve a final ratio 4∶1 (sample:developing solution). Following the spin, the plate was incubated for 25 min before being read at 642 nm for absorbance using an EnVision plate reader (PerkinElmer; Waltham, MA). RGS8 was evaluated similarly to as described for RGS4, with 4× stock concentrations from 20 nM and 800 nM. For each time-course, corresponding GTP only wells were included to account for spontaneous hydrolysis of GTP over time.
(§1) Malachite green compound activity and Z-factor analysis conducted in 384-well plates utilized optimized parameters as discerned from the time-course experiments. 10 µL of 4× compound or MGB was dispensed into appropriate wells. For single point assay, 160 µM compound was used, and for dose-response assays a series of ½ log dilutions from 100 µM final to 316pM final was used. 10 µL of the optimized 4× RGS4 concentration, 0.8 µM in MGB, was dispensed into all wells. After a spin down at 100×g for 1 min, the assay plate was incubated at 25°C for 30 min. 10 µL of the optimized Gαi concentration, 20 µM in MGB, was dispensed to each well and incubated at 25°C for 5 min. 10 µL of the optimized 4× GTP, 600 µM in MGB, was then added to the samples. After spinning the samples down at 100×g for 1 min, the samples were incubated at 25°C for 75 min. The samples were then stamped with 10 µL of DS and incubated for 25 min before reading absorbance at 642 nm.
1536-well Z-factor analysis and compound library screen were accomplished largely as described for 384-well plates. Initial screen and Z-factor determination was performed in a final concentration of 5.5% dimethylsulfoxide. […]

The next series addresses RGS4(Δ7) mutant (Rattus norvegicus, UniProt P49799, C132A/C148A/C183A/C197A/C204A/C71A/C95A). The experiment in a line: Malachite green steady-state GAP assay, cysteine-null RGS4(Δ7) counter screen. The series is classed as biochemical.
Description: Rat RGS4, sharing 97% sequence identity with human RGS4, and the cysteine to alanine mutant were expressed as fusion proteins of maltose binding protein (MBP), a 10× His tag, and a TEV protease recognition site fused to the N-terminus of an RGS4 construct containing amino acids 51–205, in the vector pMALC2H10T in BL21-DE3 E. coli (Stratagene; Santa Clara, CA). The single cysteine-null Δ51-RGS4 construct was generated by site-directed mutagenesis as described previously. Expression and purification were performed as described previously. Purified protein was incubated with TEV protease at a molar ratio of 10∶1(fusion protein:TEV protease) overnight at 4°C. The cleaved Δ51-RGS4 was then isolated by purification over an ANX column (GE Healthcare; Fairfield, CT) in 50 mM HEPES at pH 6.8 and 50 mM NaCl. The flow through, containing the ∼99% Δ51-RGS4 as determined by SDS-PAGE gel, was then collected and concentrated using a YM-10 centrifugal concentrator (Millipore; Billerica, MA). The concentration of Δ51-RGS4 was calculated based on the absorbance at 280 nm utilizing a Take-3 plate (Biotek; Winnoski, VT) in a Synergy 2 plate reader (Biotek; Winnoski, VT).
as §1
Data was analyzed using Prism analysis software (Graphpad Software; La Jolla, CA). Initial malachite green assay optimization was accomplished by comparing the fit of both straight line and hyperbolic functions. The fit that mostly closely resembled the data was used to represent the data. IC50 values for each compound were determined by fitting the data to a sigmoidal curve, which was used to calculate the IC50 value.
(Counterscreens check selectivity or assay interference.)

On the set-up of series [1]: method as in PMID 20700722, PMID 21088503. The conditions noted are these: rodent models; cited from earlier work.
Where [2] appears, read: malachite green assay, RGS4(Δ7) mutant, concentration-response, read-out: IC50 against RGS4(Δ7).

SMILES strings stand for the structures. pIC50: −log10 of the molar value. Where a name gives a salt, the structure may show the parent alone. Read-outs that look alike come from different tables or passages of the source.

For orientation: pIC50 means −log10 of the IC50, conventionally taken in molar units.

Sequence of RGS4(Δ7) mutant (P49799 51-205 C71A/C95A/C132A/C148A/C183A/C197A/C204A limits assumed): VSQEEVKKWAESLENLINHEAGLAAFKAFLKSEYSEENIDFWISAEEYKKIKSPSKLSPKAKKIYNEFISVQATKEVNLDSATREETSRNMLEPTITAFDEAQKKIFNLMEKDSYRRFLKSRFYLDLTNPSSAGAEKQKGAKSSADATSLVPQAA

On to `CC1=C(O)C(=O)C=C2C1=CC=C1[C@@]2(C)CC[C@@]2(C)[C@@H]3C[C@](C)(C(=O)O)CC[C@]3(C)CC[C@]12C` [UI-1590, celastrol], for which the pIC50 against RGS4(WT) was 6.14; at RGS4(Δ7) mutant it was 4.06. In addition, in series [1], the Toxicity in vivo entry is on record as “minor toxicity”.
On to `C[n+]1cc2c3c(ccc2c2ccc4cc5c(cc4c21)OCO5)OCO3` [UI-5, sanguinarium sulfate], for which the pIC50 on RGS4(WT) (malachite green assay, 200 nM RGS4, concentration-response, read-out: IC50 against RGS4(WT)) was 3.90; at RGS4(Δ7) mutant (setting [2]), 3.34.
With `CC(C)=CCC[C@]1(C)C=Cc2c(O)c3c(c(CC=C(C)C)c2O1)O[C@]12C(=C[C@@H]4C[C@H]1C(C)(C)O[C@@]2(C/C=C(/C)C(=O)O)C4=O)C3=O` [UI-1907, gambogic acid], the negative-log IC50 (pIC50) against RGS4(WT) was 4.80; at RGS4(Δ7) mutant, 4.29. Also, the “Inhibition of RGS4 (in words)” value at RGS4(WT) (malachite green assay) was “weak inhibitors”. Moreover, the “Inhibition of RGS4(Δ7) (in words)” value at RGS4(Δ7) mutant (malachite green assay) is “weak inhibitors”.
Take `CC(=O)Oc1c2c(c(CC=C(C)C)c3c1C(=O)C1=C[C@@H]4CC5C(C)(C)OC(C/C=C(\C)C(=O)O)(C4=O)[C@@]15O3)OC(C)(CCC=C(C)C)C=C2` (some centres unmarked) [UI-2034, acetyl-isogambogic acid]: on RGS4(WT) (malachite green assay), the “Inhibition of RGS4 (in words)” value is on record as “weak inhibitors”. On RGS4(Δ7) mutant (malachite green assay), the “Inhibition of RGS4(Δ7) (in words)” value is listed as “weak inhibitors”. On RGS4(Δ7) mutant (setting [2]), the negative logarithm of the IC50 (pIC50) was 3.74.
Turning to `Cc1ccc(-n2sc(=O)n(Cc3ccc(F)cc3)c2=O)cc1` [CCG-50014, reference compound], the “Mean absorbance at 642 nm, positive control” value at RGS4(WT) (384-well plate, 192 wells, negative control (buffer) mean 1.74) is 0.92; on RGS4(WT) (1536-well plate, 5.5% DMSO, 128 wells, negative control (buffer) mean 0.67), 0.30.
